# Measured values as given in patent US11498899B2, “Nitrone herbicides” (FMC Corporation, priority 2016, dated 2022).
# Experiments:
# [1] = test system: rice (Oryza sativa); assay: Test B flooded paddy test, visual rating 0-100 (0 no effect, 100 complete control); details: Flood, 250 g ai/ha, applied to paddy water, rated after 13 to 15 days
# [2] = test system: barnyardgrass (Echinochloa crus-galli); assay: Test B flooded paddy test, visual rating 0-100; details: Flood, 250 g ai/ha, applied to paddy water, rated after 13 to 15 days
# [3] = test system: ducksalad (Heteranthera limosa); assay: Test B flooded paddy test, visual rating 0-100; details: Flood, 250 g ai/ha, applied to paddy water, rated after 13 to 15 days
# [4] = test system: barnyardgrass (Echinochloa crus-galli); assay: Test A preemergence, visual injury rating 0-100 (0 no effect, 100 complete control); assay type: in vivo
# [5] = test system: ryegrass, Italian (Italian ryegrass, Lolium multiflorum); assay: Test A preemergence, visual injury rating 0-100; assay type: in vivo
# [6] = test system: foxtail, giant (giant foxtail, Setaria faberii); assay: Test A preemergence, visual injury rating 0-100; assay type: in vivo
# [7] = test system: ragweed (common ragweed, Ambrosia elatior); assay: Test A preemergence, visual injury rating 0-100; assay type: in vivo
# [8] = test system: pigweed (Amaranthus retroflexus); assay: Test A preemergence, visual injury rating 0-100; assay type: in vivo
# [9] = test system: kochia (Kochia scoparia); assay: Test A preemergence, visual injury rating 0-100; assay type: in vivo
# [10] = test system: wheat (Triticum aestivum); assay: Test A postemergence, visual injury rating 0-100; assay type: in vivo; details: 0 to 100 scale
# [11] = test system: corn (Zea mays); assay: Test A postemergence, visual injury rating 0-100; assay type: in vivo; details: 0 to 100 scale
# [12] = test system: ryegrass, Italian (Italian ryegrass, Lolium multiflorum); assay: Test A postemergence, visual injury rating 0-100; assay type: in vivo; details: 0 to 100 scale
# [13] = test system: galium (catchweed bedstraw, Galium aparine); assay: Test A postemergence, visual injury rating 0-100; assay type: in vivo; details: 0 to 100 scale
# [14] = test system: blackgrass (Alopecurus myosuroides); assay: Test A postemergence, visual injury rating 0-100; assay type: in vivo; details: 0 to 100 scale
# [15] = test system: foxtail, giant (giant foxtail, Setaria faberii); assay: Test A postemergence, visual injury rating 0-100; assay type: in vivo; details: 0 to 100 scale
# [16] = test system: ragweed (common ragweed, Ambrosia elatior); assay: Test A postemergence, visual injury rating 0-100; assay type: in vivo; details: 0 to 100 scale
# [17] = test system: pigweed (Amaranthus retroflexus); assay: Test A postemergence, visual injury rating 0-100; assay type: in vivo; details: 0 to 100 scale
# [18] = test system: kochia (Kochia scoparia); assay: Test A postemergence, visual injury rating 0-100; assay type: in vivo; details: 0 to 100 scale
# [19] = test system: barnyardgrass (Echinochloa crus-galli); assay: Test A postemergence, visual injury rating 0-100; assay type: in vivo; details: 0 to 100 scale
SMILES,Rice plant response rating (0 to 100 scale) [1],Barnyardgrass plant response rating (0 to 100 scale) [2],Ducksalad plant response rating (0 to 100 scale) [3],Barnyardgrass plant response rating (0 to 100 scale) ([4]; 125 g ai/ha),"Foxtail, Giant plant response rating (0 to 100 scale) ([6]; 125 g ai/ha)",Ragweed plant response rating (0 to 100 scale) ([7]; 125 g ai/ha),Pigweed plant response rating (0 to 100 scale) ([8]; 125 g ai/ha),Kochia plant response rating (0 to 100 scale) ([9]; 125 g ai/ha),Wheat plant response rating ([10]; 125 g ai/ha),Wheat plant response rating ([10]; 500 g ai/ha),Corn plant response rating ([11]; 125 g ai/ha),Corn plant response rating ([11]; 500 g ai/ha),"Ryegrass, Italian plant response rating ([12]; 125 g ai/ha)","Ryegrass, Italian plant response rating ([12]; 500 g ai/ha)",Galium plant response rating ([13]; 125 g ai/ha),Galium plant response rating ([13]; 500 g ai/ha),Blackgrass plant response rating ([14]; 125 g ai/ha),Blackgrass plant response rating ([14]; 500 g ai/ha),"Foxtail, Giant plant response rating ([15]; 125 g ai/ha)","Foxtail, Giant plant response rating ([15]; 500 g ai/ha)",also measured
CC1=[N+]([O-])C(C(=O)Nc2cccc(F)c2F)C(c2ccc(C(F)(F)F)c(C)c2)C1 (racemic) [Compound 87],0,50,85,90,90,0,100,10,70,80,70,80,70,90,0,70,70,90,60,90,"Barnyardgrass plant response rating (0 to 100 scale) ([4]; 500 g ai/ha): 90; Ryegrass, Italian plant response rating (0 to 100 scale) ([5]; 125 g ai/ha): 90; Ryegrass, Italian plant response rating (0 to 100 scale) ([5]; 500 g ai/ha): 90; Foxtail, Giant plant response rating (0 to 100 scale) ([6]; 500 g ai/ha): 90; Ragweed plant response rating (0 to 100 scale) ([7]; 500 g ai/ha): 70; Pigweed plant response rating (0 to 100 scale) ([8]; 500 g ai/ha): 100; Kochia plant response rating (0 to 100 scale) ([9]; 500 g ai/ha): 80; Ragweed plant response rating ([16]; 125 g ai/ha): 10; Ragweed plant response rating ([16]; 500 g ai/ha): 30; Pigweed plant response rating ([17]; 125 g ai/ha): 0; Pigweed plant response rating ([17]; 500 g ai/ha): 50; Kochia plant response rating ([18]; 125 g ai/ha): 10; Kochia plant response rating ([18]; 500 g ai/ha): 70; Barnyardgrass plant response rating ([19]; 125 g ai/ha): 80; Barnyardgrass plant response rating ([19]; 500 g ai/ha): 90"
CC1=[N+]([O-])C(C(=O)Nc2cccc(F)c2F)C(c2ccc3c(c2)OCO3)C1 (racemic) [Compound 4],10,60,40,100,100,0,20,0,0,60,0,60,0,40,30,60,0,20,40,90,"Barnyardgrass plant response rating ([4]; 500 g ai/ha, 0 to 100 scale): 100; Ryegrass, Italian plant response rating (0 to 100 scale) ([5]; 125 g ai/ha): 0; Ryegrass, Italian plant response rating ([5]; 500 g ai/ha, 0 to 100 scale): 20; Foxtail, Giant plant response rating ([6]; 500 g ai/ha, 0 to 100 scale): 100; Ragweed plant response rating ([7]; 500 g ai/ha, 0 to 100 scale): 100; Pigweed plant response rating ([8]; 500 g ai/ha, 0 to 100 scale): 90; Kochia plant response rating ([9]; 500 g ai/ha, 0 to 100 scale): 80; Ragweed plant response rating ([16]; 125 g ai/ha): 0; Ragweed plant response rating ([16]; 500 g ai/ha): 50; Pigweed plant response rating ([17]; 125 g ai/ha): 0; Pigweed plant response rating ([17]; 500 g ai/ha): 20; Kochia plant response rating ([18]; 125 g ai/ha): 0; Kochia plant response rating ([18]; 500 g ai/ha): 50; Barnyardgrass plant response rating ([19]; 125 g ai/ha): 50; Barnyardgrass plant response rating ([19]; 500 g ai/ha): 90"
CC1=[N+]([O-])C(C(=O)Nc2cccc(F)c2F)C(c2cccc(F)c2C)C1 (racemic) [Compound 78],0,75,100,90,90,20,0,10,40,60,0,50,10,50,60,60,50,70,80,90,"Barnyardgrass plant response rating (0 to 100 scale) ([4]; 500 g ai/ha): 90; Ryegrass, Italian plant response rating (0 to 100 scale) ([5]; 125 g ai/ha): 30; Ryegrass, Italian plant response rating (0 to 100 scale) ([5]; 500 g ai/ha): 70; Foxtail, Giant plant response rating (0 to 100 scale) ([6]; 500 g ai/ha): 90; Ragweed plant response rating (0 to 100 scale) ([7]; 500 g ai/ha): 70; Pigweed plant response rating (0 to 100 scale) ([8]; 500 g ai/ha): 80; Kochia plant response rating (0 to 100 scale) ([9]; 500 g ai/ha): 60; Ragweed plant response rating ([16]; 125 g ai/ha): 0; Ragweed plant response rating ([16]; 500 g ai/ha): 60; Pigweed plant response rating ([17]; 125 g ai/ha): 0; Pigweed plant response rating ([17]; 500 g ai/ha): 20; Kochia plant response rating ([18]; 125 g ai/ha): 20; Kochia plant response rating ([18]; 500 g ai/ha): 50; Barnyardgrass plant response rating ([19]; 125 g ai/ha): 70; Barnyardgrass plant response rating ([19]; 500 g ai/ha): 80"
COc1ccc(C2CC(C)=[N+]([O-])C2C(=O)Nc2cccc(F)c2F)cc1C(F)(F)F (racemic) [Compound 74],0,45,20,90,90,40,0,30,60,60,40,80,0,50,20,50,70,70,60,80,"Barnyardgrass plant response rating (0 to 100 scale) ([4]; 500 g ai/ha): 90; Ryegrass, Italian plant response rating (0 to 100 scale) ([5]; 125 g ai/ha): 90; Ryegrass, Italian plant response rating (0 to 100 scale) ([5]; 500 g ai/ha): 90; Foxtail, Giant plant response rating (0 to 100 scale) ([6]; 500 g ai/ha): 90; Ragweed plant response rating (0 to 100 scale) ([7]; 500 g ai/ha): 40; Pigweed plant response rating (0 to 100 scale) ([8]; 500 g ai/ha): 60; Kochia plant response rating (0 to 100 scale) ([9]; 500 g ai/ha): 90; Ragweed plant response rating ([16]; 125 g ai/ha): 0; Ragweed plant response rating ([16]; 500 g ai/ha): 20; Pigweed plant response rating ([17]; 125 g ai/ha): 20; Pigweed plant response rating ([17]; 500 g ai/ha): 40; Kochia plant response rating ([18]; 125 g ai/ha): 0; Kochia plant response rating ([18]; 500 g ai/ha): 10; Barnyardgrass plant response rating ([19]; 125 g ai/ha): 80; Barnyardgrass plant response rating ([19]; 500 g ai/ha): 90"
CC1=[N+]([O-])C(C(=O)Nc2cccc(F)c2F)C(c2cc(C(F)(F)F)cc(C(F)(F)F)c2)C1 (racemic) [Compound 110],0,0,0,90,90,50,0,0,50,80,80,90,70,80,50,70,80,90,80,90,"Barnyardgrass plant response rating (0 to 100 scale) ([4]; 500 g ai/ha): 90; Ryegrass, Italian plant response rating (0 to 100 scale) ([5]; 500 g ai/ha): 90; Foxtail, Giant plant response rating (0 to 100 scale) ([6]; 500 g ai/ha): 90; Ragweed plant response rating (0 to 100 scale) ([7]; 500 g ai/ha): 80; Pigweed plant response rating (0 to 100 scale) ([8]; 500 g ai/ha): 60; Kochia plant response rating (0 to 100 scale) ([9]; 500 g ai/ha): 20; Ragweed plant response rating ([16]; 125 g ai/ha): 0; Ragweed plant response rating ([16]; 500 g ai/ha): 70; Pigweed plant response rating ([17]; 125 g ai/ha): 0; Pigweed plant response rating ([17]; 500 g ai/ha): 20; Kochia plant response rating ([18]; 125 g ai/ha): 0; Kochia plant response rating ([18]; 500 g ai/ha): 50; Barnyardgrass plant response rating ([19]; 125 g ai/ha): 40; Barnyardgrass plant response rating ([19]; 500 g ai/ha): 90"
